Results reported in patent US8569301B2, “6, 6-dioxo-6-thia-1, 4-diaza-naphthalenes as herbicides” (Syngenta Limited, priority 2009, dated 2013).

How the values were obtained:
Assay type in all cases: in vivo
[1] = tested on: crop and representative weed species; assay: Example B2 herbicidal action post-emergence (Table B2); settings: application post-emergence, rate 500 g/ha, evaluated after 15 days, score 10 to 0; for herbicidal damage score AMARE (10=total damage to plant; 0=no damage to plant): AMARE = Amaranthus retroflexus; for herbicidal damage score ECHCG (10=total damage to plant; 0=no damage to plant): ECHCG = Echinochloa crus-galli; for herbicidal damage score IPOHE (10=total damage to plant; 0=no damage to plant): IPOHE = Ipomea hederaceae; for herbicidal damage score SETFA (10=total damage to plant; 0=no damage to plant): SETFA = Setaria faberi
Description: Seeds of crop and representative weed species were sown in standard soil in pots. After cultivation for 14 days under controlled conditions in a glasshouse (at 22/16° C., day/night; 16 hours light; 65% humidity), the plants were sprayed. The spray solution was prepared by dissolving the technical active ingredient in acetone containing 10.56 wt % Emulsogen EL, 42.22 wt % N-methylpyrrolidone and 2.22 wt % DPG-monoethyl ether to give a 5% stock solution. This was then diluted with water containing 0.2% (v/v) of the adjuvant X-77 to give the desired treatment concentration.
The test plants were then grown on under controlled conditions in a glasshouse (at 22/16° C., day/night; 16 hours light; 65% humidity) and watered twice daily. After 15 days the test was evaluated and the assessed scores, from 10 to 0, are tabulated in Table B2 (10=total damage to plant; 0=no damage to plant).

AMARE = assay: Example B1 herbicidal action post-emergence, AMARE; settings: sprayed after 8 days cultivation, evaluated after 13 days, scores from 10 to 0 (10=total damage to plant; 0=no damage to plant)
Description: (§1) Seeds of a variety of test species were sown in standard soil in pots. After 8 days cultivation (post-emergence) under controlled conditions in a glasshouse (at 24/16° C., day/night; 14 hours light; 65% humidity), the plants were sprayed with an aqueous spray solution derived from the formulation of the technical active ingredient in acetone/water (50:50) solution containing 0.5% Tween 20 (polyoxyethelyene sorbitan monolaurate, CAS RN 9005-64-5). The test plants were then grown under controlled conditions in a glasshouse (at 24/16° C., day/night; 14 hours light; 65% humidity) and watered twice daily. After 13 days, the test was evaluated and the assessed scores, from 10 to 0, are tabulated in Table B1 (10=total damage to plant; 0=no damage to plant).

SETFA = assay: Example B1 herbicidal action post-emergence, SETFA; settings: sprayed after 8 days cultivation, evaluated after 13 days, scores from 10 to 0 (10=total damage to plant; 0=no damage to plant)
Description: as §1

IPOHE = assay: Example B1 herbicidal action post-emergence, IPOHE; settings: sprayed after 8 days cultivation, evaluated after 13 days, scores from 10 to 0 (10=total damage to plant; 0=no damage to plant)
Description: as §1

SOLNI = assay: Example B1 herbicidal action post-emergence, SOLNI; settings: sprayed after 8 days cultivation, evaluated after 13 days, scores from 10 to 0 (10=total damage to plant; 0=no damage to plant)
Description: as §1

ECHCG = assay: Example B1 herbicidal action post-emergence, ECHCG; settings: sprayed after 8 days cultivation, evaluated after 13 days, scores from 10 to 0 (10=total damage to plant; 0=no damage to plant)
Description: as §1

Compound | assessed score, application post-emergence, AMARE (AMARE; Rate 1000 g/ha) | assessed score, application post-emergence, SETFA (SETFA; Rate 1000 g/ha) | assessed score, application post-emergence, IPOHE (IPOHE; Rate 1000 g/ha) | assessed score, application post-emergence, SOLNI (SOLNI; Rate 1000 g/ha) | assessed score, application post-emergence, ECHCG (ECHCG; Rate 1000 g/ha) | other results
C=CCC1c2nccnc2C(O)=C(c2c(F)ccc(Br)c2Cl)S1(=O)=O (stereo not shown) [Compound E20] | – | – | – | – | – | herbicidal damage score AMARE (10=total damage to plant; 0=no damage to plant) [1]: 7; herbicidal damage score ECHCG (10=total damage to plant; 0=no damage to plant) [1]: 2; herbicidal damage score IPOHE (10=total damage to plant; 0=no damage to plant) [1]: 7; herbicidal damage score SETFA (10=total damage to plant; 0=no damage to plant) [1]: 4
C#CCC1c2nccnc2C(O)=C(c2c(F)ccc(Br)c2Cl)S1(=O)=O (stereo not shown) [Compound E8] | – | – | – | – | – | herbicidal damage score AMARE (10=total damage to plant; 0=no damage to plant) [1]: 8; herbicidal damage score ECHCG (10=total damage to plant; 0=no damage to plant) [1]: 6; herbicidal damage score IPOHE (10=total damage to plant; 0=no damage to plant) [1]: 9; herbicidal damage score SETFA (10=total damage to plant; 0=no damage to plant) [1]: 6
O=S1(=O)Cc2nccnc2C(O)=C1c1c(Cl)cc(Cl)cc1Cl [Compound C23] | 8 | 7 | 8 | 9 | 8 | –
CC(C)C(=O)OC1=C(c2c(F)ccc(Br)c2Cl)S(=O)(=O)Cc2nccnc21 [Compound X2, isobutyric acid 7-(3-bromo-2-chloro-6-fluoro-phenyl)-6,6-dioxo-5,6-dihydro-6-thia-1,4-diaza-naphthalen-8-yl ester] | 10 | 8 | 8 | 10 | 8 | –
O=S1(=O)Cc2nccnc2C(O)=C1c1cc(C(F)(F)F)ccc1Cl [Compound C2] | 0 | 0 | 0 | 0 | 0 | –
O=S1(=O)C(c2c(F)ccc(Br)c2Cl)=C(O)c2nccnc2C1CC(F)F (stereo not shown) [Compound E9] | 10 | 5 | 8 | 9 | 3 | –
O=S1(=O)Cc2nccnc2C(O)=C1c1cc(F)ccc1Cl [Compound C15] | 7 | 6 | 3 | 8 | 5 | –
CC1(C)c2nccnc2C(O)=C(c2c(F)ccc(Br)c2Cl)S1(=O)=O [Compound F2] | 10 | 9 | 9 | 10 | 8 | –
O=S1(=O)Cc2nccnc2C(O)=C1c1c(Cl)cccc1C(F)(F)F [Compound C13] | 8 | 8 | 8 | 2 | 8 | –
O=S1(=O)C(c2cc(Cl)ccc2C(F)(F)F)=C(O)c2nccnc2C12CC2 [Compound F11, 7-(5-chloro-2-trifluoromethyl-phenyl)-5,5-cyclopropyl-6,6-dioxo-5,6-dihydro-6-thia-1,4-diaza-naphthalen-8-ol] | 6 | 2 | 7 | 7 | 3 | –
CC1(C)c2nccnc2C(O)=C(c2ccc(Br)cc2C(F)(F)F)S1(=O)=O [Compound F6] | – | – | – | – | – | assessed score, application post-emergence, AMARE (AMARE; Rate 250 g/ha): 9; assessed score, application post-emergence, SETFA (SETFA; Rate 250 g/ha): 8; assessed score, application post-emergence, IPOHE (IPOHE; Rate 250 g/ha): 8; assessed score, application post-emergence, SOLNI (SOLNI; Rate 250 g/ha): 9; assessed score, application post-emergence, ECHCG (ECHCG; Rate 250 g/ha): 9
CC1c2nccnc2C(O)=C(c2c(Cl)cccc2C(F)(F)F)S1(=O)=O (racemic) [Compound E3] | 9 | 8 | 8 | 8 | 8 | –
